Test results taken from patent publication US8293781B2, “Indole derivatives having cPLA2 inhibiting activity and applications and production methods of the same” (Daiichi Sankyo Company, Limited, priority 2007, dated 2012).
Counter-ions that a name gives are not always drawn.

Tests used:
[1] = test system: guinea pig antigen induced bronchial asthma model; experiment: Guinea pig antigen induced bronchial asthma model: airway hyperreactivity to acetyl choline; type: in vivo; conditions: 22 to 24 hours after inducement
Method: (§1) Hartley male guinea pigs (Kyudo Co., Ltd.) were sensitized by inhaling the aerosolized 1% OVA-containing physiological saline solution for consecutive 8 days. One week after the final sensitization, antigen antibody reaction was elicited by inhaling the aerosolized 2% OVA-containing physiological saline solution. 24 hours and 1 hour before antigen challenge, metyrapone (10 mg/kg, 1.0 ml/kg) was injected to the hind limb peripheral vein. 30 minutes before antigen challenge, pyrilamine maleate (10 mg/kg, 1.0 ml/kg) was administered intraperitoneally. The test compound (5 mg/kg and 20 mg/kg, 5.0 ml/kg) was administered once a day from the day after the final sensitization to the day before challenge. On the day of challenge, it was administered orally 1 hour before challenge and 8 hours after challenge. Note that the number of mice used in the test was made eight per group.
The airway hyperreactivity was measured 22 to 24 hours after inducement. Physiological saline solution and acetyl choline in 0.0625, 0.125, 0.25, 0.5, 1, and 2 mg/ml amounts in physiological saline solutions were successively nebulized and made to be inhaled by guinea pigs 1 minute at a time each, then the sRaw was measured by a total respiratory function analysis system (Pulmos-I, made by M.I.P.S.) The results of evaluation of typical compounds are shown in Table 9 for different acetyl choline concentrations (PC100Ach, mg/ml) inducing 100% airway resistance.

[2] = test system: guinea pig antigen induced bronchial asthma model; experiment: Guinea pig antigen induced bronchial asthma model: infiltrating cells in BALF; type: in vivo
Method: as §1
The number of cells in a bronchial alveolar lavage fluid was counted after measurement of the airway hyperreactivity. Each guinea pig was exsanguinated under anesthesia, its chest was opened, a cannular was inserted into the trachea, then physiological saline was injected into and sucked out from the lungs to recover the bronchial alveolar lavage fluid (BALF). The BALF was centrifugally separated, the obtained precipitate (pellets) was suspended in physiological saline and the total number of cells per 1 μl was calculated by an automatic blood cell counting system (Sysmex F-820). The total number of cells was calculated, then the sample was again centrifugally separated and the obtained pellets were hemolyzed, diluted, centrifuged, and dried, then stained by May-Greenwald's-Giemsa dye. Using a microscope, the ratios of the macrophages, eosinophil granulocytes, neutrophils, and lymphocytes to the total blood cell count (total number of cells) were found and the ratios used to calculate the numbers of cells per μl. The inhibiting rate was found as a percent (%) of the value of the number of cells of the control vehicle administered group minus the number of cells of each compound administered group with respect to the value of the number of cells of the vehicle administered group minus the number of cells of the negative control saline inhalation group.

[3] = test system: guinea pig antigen induced bronchial asthma model; experiment: Guinea pig antigen induced bronchial asthma model: airway resistance (IAR, LAR); type: in vivo; conditions: for IAR suppression rate (airway resistance): immediate asthmatic response, 1 minute after challenge; for LAR suppression rate (airway resistance): late asthmatic response, AUC 4 to 8 hours
Method: as §1
The airway resistance (sRaw) was measured using a total respiratory function analysis system (Pulmos-I, made by M.I.P.S.) before antigen challenge, 1 minute after finishing the antigen challenge, and 2, 4, 5, 6, 7, 8, and 22 to 24 hours after antigen challenge. […] The late asthmatic response (LAR) was evaluated by calculating the AUC from the rate of change 4 to 8 hours after inducement based on the measurement values and finding the value obtained by subtratcting the AUC of each compound administered group from the AUC of the vehicle administered group with the control inhibition rate as a percent (%) with respect to the value of the vehicle administered group. The rates of suppression of typical compounds with respect to the increases in airway resistances in immediate asthmatic response (IAR) and late asthmatic response (LAR) are shown in Table 8.

rats = experiment: Repeated oral administration to rats once a day over two weeks (toxicity); type: in vivo, rat; conditions: once a day over two weeks repeatedly orally
Method: Further, the present invention compound (I) or its salts or their solvates have low toxicity. In experiments administering the compound of Example 231 of the present invention to rats once a day over two weeks repeatedly orally, the nontoxic amount was 180 mg/kg/day.

SMILES | PC100ACh (acetyl choline concentration inducing 100% airway resistance) ([1]; 5 mg/kg oral) [mg/mL] | PC100ACh (acetyl choline concentration inducing 100% airway resistance) ([1]; 20 mg/kg oral) [mg/mL] | Inhibitory rate of infiltrating cells in BALF: Eosinophils ([2]; 5 mg/kg oral) [%] | Inhibitory rate of infiltrating cells in BALF: Lymphocytes ([2]; 5 mg/kg oral) [%] | Inhibitory rate of infiltrating cells in BALF: Macrophages ([2]; 5 mg/kg oral) [%] | Inhibitory rate of infiltrating cells in BALF: Neutrophils ([2]; 5 mg/kg oral) [%] | Inhibitory rate of infiltrating cells in BALF: Total number of cells ([2]; 5 mg/kg oral) [%] | Inhibitory rate of infiltrating cells in BALF: Eosinophils ([2]; 20 mg/kg oral) [%] | Inhibitory rate of infiltrating cells in BALF: Lymphocytes ([2]; 20 mg/kg oral) [%] | Inhibitory rate of infiltrating cells in BALF: Macrophages ([2]; 20 mg/kg oral) [%] | Inhibitory rate of infiltrating cells in BALF: Neutrophils ([2]; 20 mg/kg oral) [%] | Inhibitory rate of infiltrating cells in BALF: Total number of cells ([2]; 20 mg/kg oral) [%] | IAR suppression rate (airway resistance) ([3]; 5 mg/kg oral) [%] | LAR suppression rate (airway resistance) ([3]; 5 mg/kg oral) [%] | IAR suppression rate (airway resistance) ([3]; 20 mg/kg oral) [%] | LAR suppression rate (airway resistance) ([3]; 20 mg/kg oral) [%] | nontoxic amount (rats) [mg/kg/day]
O=C(O)CCc1ccc2c(c1)c(CCc1ccccc1)cn2-c1ccc(OC(F)F)cc1 [Example 190, 3-{1-[4-(difluoromethoxy)phenyl]-3-(2-phenylethyl)-1H-indol-5-yl}propanoic acid 2-amino-2-(hydroxymethyl)propane-1,3-diol salt (1:1)] | 0.57 | 0.50 | 41 | 30 | 66 | 0 | 33 | 76 | 42 | 76 | 37 | 62 | 2 | 46 | 2 | 42 | 
O=C(O)CCc1ccc2c(c1)c(CCc1ccccc1)cn2-c1ccc(Oc2ccccc2)cc1 [Example 231, 3-[1-(4-phenoxyphenyl)-3-(2-phenylethyl)-1H-indol-5-yl]propanoic acid 2-amino-2-(hydroxymethyl)propane-1,3-diol salt (1:1)] | 1.02 | 1.09 | 58 | 45 | 80 | 38 | 58 | 69 | 55 | 85 | 64 | 72 | 21 | 45 | 59 | 78 | 180
O=C(O)CCc1ccc2c(c1)c(CCc1ccccc1)cn2-c1ccc(OCCO)cc1 [Example 229, 3-{1-[4-(2-hydroxyethoxy)phenyl]-3-(2-phenylethyl)-1H-indol-5-yl}propanoic acid 2-amino-2-(hydroxymethyl)propane-1,3-diol salt (1:1)] | 0.47 | 0.74 | 51 | 11 | 58 | 0 | 30 | 46 | 12 | 46 | 16 | 35 | 15 | 22 | 33 | 37 | 
